Results taken from patent publication EP3144007A1 (priority 2015, dated 2017).
Values joined by “and” are separate entries in the source; they are usually repeats but may differ in a detail not shown here. Equal entries are not always repeated. Where a SMILES comes first, the peptide text is derived from it. Bridges are numbered along the chain shown (N, C = ends).

What was measured:
[1] = test system: cerebellar granule neurons; assay type: cell-based
[2] = test system: cerebellar granule neurons
[3] = molecular target: TrkB receptor on cultured cerebellar granule neurons

| Compound | internalization of Hc-TeNT fragment (area occupied by Hc-TeNT) [1] | percentage of Hc-TeNT in colocalization with TrkB [1] | percentage of TrkB in co-localization with Hc-TeNT [1] [%] | competition with the Hc-TeNT fragment for binding to cell membrane [2] | IC50 ([2]; 3 h) [µM] | IC50 (concentration of unlabeled competitor necessary to displace 50% of specifically bound Hc-TeNT) ([2]; 3 h) [µg/mL] | IC50 [3] |
| --- | --- | --- | --- | --- | --- | --- | --- |
| CSCC[C@@H]1NC(=O)CNC(=O)[C@H](CC(N)=O)NC(=O)[C@H](CC(N)=O)NC(=O)[C@H](CCSC)NC(=O)[C@H](Cc2c[nH]cn2)NC(=O)[C@H]([C@@H](C)O)NC(=O)[C@@H]2CCCN2C(=O)[C@H](CC(N)=O)NC(=O)[C@H](CC(=O)O)NC(=O)[C@H](CC(C)C)NC(=O)[C@H](CCC(N)=O)NC(=O)[C@H](CC(C)C)NC(=O)[C@@H](NC(=O)CN)CSSC[C@@H](C(=O)N[C@@H](CC(N)=O)C(=O)N[C@@H](CC(N)=O)C(=O)NCC(=O)O)NC(=O)[C@H](Cc2c[nH]cn2)NC(=O)[C@H]([C@@H](C)O)NC(=O)[C@@H]2CCCN2C(=O)[C@H](CC(N)=O)NC(=O)[C@H](CC(=O)O)NC(=O)[C@H](CC(C)C)NC(=O)[C@H](CCC(N)=O)NC(=O)[C@H](CC(C)C)NC1=O [d5 peptide] (H-GCLQLDNPTHMNNGMLQLDNPTHCNNG-OH; disulfide 2-24) | seems not to affect | about 44% | 51 | capable to compete | 108 | 317.3 | – |
| BDNF (from UniProt P23560 129-247) (ligand) | – | – | – | – | – | – | 4.2 nM and 0.06 µg/mL |
